{"source": "patent US20120183587A1", "about": "“FLAVONOL COMPOSITIONS” (priority 2011, published 2012)", "origin": "cited, not measured here", "conditions": "Guglen et al., Eur. J. Clin. Pharmacol. 1975", "data": [{"compound": "O=c1c(O)c(-c2ccc(O)c(O)c2)oc2cc(O)cc(O)c12", "note": "[quercetin, 3,3′,4′,5,7-pentahydroxy-2-phenylchromen-4-one]", "values": [{"measurement": "extent of absorption from an oral dose", "value": "about 1%"}]}]}
